US4599333A, “Hydrazinopyridazine compound, process for production thereof, and use thereof as medicament” (Teikoku Hormone Mfg. Co., Ltd., priority 1984, dated 1986)

Legend:
Type in all cases: in vivo, male Wistar rats
β2 = target: T1, β2 (Rattus norvegicus, UniProt P10608); experiment: β2-adrenoceptor blocking action (inhibition of fall in blood pressure exerted by isoproterenol); settings: iv, 50% inhibition of fall in blood pressure by isoproterenol 0.1 μg/kg i.v., Table 2, read-out: β-adrenoceptor blocking action ID50 β2
T1 construct: Experiments were done using male Wistar rats; from tissue; host or cells: whole anesthetized male Wistar rat (in vivo; arterial blood pressure)
T1 sequence (P10608 whole entry): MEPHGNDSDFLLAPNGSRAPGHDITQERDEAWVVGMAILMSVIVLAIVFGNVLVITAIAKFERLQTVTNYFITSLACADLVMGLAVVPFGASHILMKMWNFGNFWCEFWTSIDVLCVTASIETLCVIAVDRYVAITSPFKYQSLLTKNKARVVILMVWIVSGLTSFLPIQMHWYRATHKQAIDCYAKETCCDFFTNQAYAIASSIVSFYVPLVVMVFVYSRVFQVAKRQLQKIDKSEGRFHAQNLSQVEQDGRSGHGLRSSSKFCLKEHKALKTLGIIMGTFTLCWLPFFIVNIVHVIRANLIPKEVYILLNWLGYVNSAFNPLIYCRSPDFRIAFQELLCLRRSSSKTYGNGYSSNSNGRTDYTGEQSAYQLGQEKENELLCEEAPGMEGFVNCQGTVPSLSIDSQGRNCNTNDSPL
Description: (§1) Experiments were done using male Wistar rats weighing between 300 and 400 g, anesthetized with sodium pentobarbital (60 mg/kg i.p.). The blood pressure was directly measured by connecting a cannula inserted in the femoral artery to a pressure transducer and the heart rate was calculated from the pulse waves of the blood pressure tracings. Each value shown here was obtained from three animals. The test compounds were individually dissolved in physiological saline solution or a 0.01N aqueous solution of hydrochloric acid.
(§2) (1) Measurement of β-adrenoceptor blocking activity
(§3) By repeating the procedure mentioned above at various doses of the test compounds, dose-response curves were prepared.

β1-adrenoceptors = target: T2, β1-adrenoceptors (Rattus norvegicus, UniProt P18090); experiment: β1-adrenoceptor blocking action (inhibition of increase in heart rate exerted by isoproterenol) and selectivity for β1-adrenoceptors; settings: blocking activity ratio from ID50 doses; Table 2
T2 construct: Experiments were done using male Wistar rats; from tissue; host or cells: whole anesthetized male Wistar rat (in vivo; heart rate)
T2 sequence (P18090 whole entry): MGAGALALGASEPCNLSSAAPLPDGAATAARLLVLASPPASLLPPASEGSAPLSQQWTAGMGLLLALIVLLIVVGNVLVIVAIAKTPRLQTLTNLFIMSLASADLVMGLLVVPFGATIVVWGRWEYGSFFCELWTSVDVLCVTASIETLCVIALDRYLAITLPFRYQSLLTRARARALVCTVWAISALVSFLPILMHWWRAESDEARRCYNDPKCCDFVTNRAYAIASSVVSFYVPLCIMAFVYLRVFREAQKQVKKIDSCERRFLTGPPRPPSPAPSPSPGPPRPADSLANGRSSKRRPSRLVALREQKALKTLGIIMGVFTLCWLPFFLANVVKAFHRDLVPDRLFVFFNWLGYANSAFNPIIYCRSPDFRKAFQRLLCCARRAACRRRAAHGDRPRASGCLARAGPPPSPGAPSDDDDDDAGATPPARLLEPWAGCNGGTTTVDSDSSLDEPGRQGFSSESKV
Description: as §1, §2
The increased heart rate before injection of the test compound was represented by H1. Three minutes after i.v. injection of the test compound, isoproterenol (0.1 μg/kg i.v.) was again administered and then the change in heart rate was measured. The maximum increase in heart rate after injection of the test compound was designated as H2. From these values, the percent inhibition of the change in heart rate was calculated in accordance with the following equation.
as §3

heart rate = experiment: Heart rate increase produced by isoproterenol; settings: single i.v. injection 0.1 μg/kg, before test compound
Description: Experiments were done using male Wistar rats weighing between 300 and 400 g, anesthetized with sodium pentobarbital (60 mg/kg i.p.). The blood pressure was directly measured by connecting a cannula inserted in the femoral artery to a pressure transducer and the heart rate was calculated from the pulse waves of the blood pressure tracings. Each value shown here was obtained from three animals. The test compounds were individually dissolved in physiological saline solution or a 0.01N aqueous solution of hydrochloric acid. A single intravenous (i.v.) injection of isoproternol (0.1 μg/kg) produced an increase in heart rate by approximately 90 beats/min. The increased heart rate before injection of the test compound was represented by H1. Three minutes after i.v. injection of the test compound, isoproterenol (0.1 μg/kg i.v.) was again administered and then the change in heart rate was measured. The maximum increase in heart rate after injection of the test compound was designated as H2. From these values, the percent inhibition of the change in heart rate was calculated in accordance with the following equation.

Row | SMILES | ED50 (β2) [mg/kg] | Selectivity for β1-adrenoceptors (β1/β2) (β1-adrenoceptors) | increase in heart rate (heart rate)
1 | Cc1ccccc1OCC(O)CNC(C)(C)COc1ccc(NN)nn1 (stereo not drawn) [C, 1-(2-methylphenoxy)-3-[1,1-dimethyl-2-(3-hydrazino-6-pyridazinyloxy)ethylamino]-2-propanol] | 0.45 | 30 | 
2 | CC(C)NCC(O)c1ccc(O)c(O)c1 (stereo not drawn) [isoproternol, isoproterenol] |  |  | approximately 90 beats/min
3 | CC(C)(COc1ccc(NN)nn1)NCC(O)COc1ccccc1Cl (stereo not drawn) [B, 1-(2-chlorophenoxy)-3-[1,1-dimethyl-2-(3-hydrazino-6-pyridazinyloxy)ethylamino]-2-propanol] | 0.23 | 29 | 
4 | CC(C)(COc1ccc(NN)nn1)NCC(O)COc1ccccc1C#N (stereo not drawn) [Compound I, 1-(2-cyanophenoxy)-3-[1,1-dimethyl-2-(3-hydrazino-6-pyridazinyloxy)ethylamino]-2-propanol] | 0.1 | 5 | 
5 | CC(C)NCC(O)COc1ccc(CC(N)=O)cc1 (stereo not drawn) [Atenolol, reference compound] | 1.5 | 30 | 
6 | Cc1ccc(C#N)c(OCC(O)CNC(C)(C)COc2ccc(NN)nn2)c1 (stereo not drawn) [K, 1-(2-cyano-5-methylphenoxy)-3-[1,1-dimethyl-2-(3-hydrazino-6-pyridazinyloxy)ethylamino]-2-propanol] | 0.1 | 2 | 
7 | C#Cc1ccccc1OCC(O)CNC(C)(C)COc1ccc(NN)nn1 (stereo not drawn) [R, 1-(2-ethinylphenoxy)-3-[1,1-dimethyl-2-(3-hydrazino-6-pyridazinyloxy)ethylamino]-2-propanol] |  | > 5 | 
